The source of these data is US5488055A, “Substituted N-cycloalkylmethyl-1H-pyrazolo(3,4-b)quinolin-4 amines and compositions and methods of use thereof” (Sanofi Winthrop Inc., priority 1995, dated 1996).

Structures are written as SMILES. Where two headings read alike, the source gives them in different places.

For one assay, the system named is cGMP-PDE V. Description: c-GMP-PDE V inhibitory activity. The class given is biochemical, various animal species and man. As for the experimental part: The cGMP-PDE and other PDE isozymes were isolated from cardiovascular tissues (heart and aorta) of various animal species and man by anion-exchange and affinity chromatography as described by Silver et al., Sec. Messeng. Phos. 13:13-25, 1991; PDE activity, in the presence and absence of test compounds was determined essentially as described by Thompson et al., Adv. Cyclic Nucleotide Res. 10:69-92. To determine the potency and selectivity of compounds as PDE inhibitors, compounds are screened for their effect on cyclic nucleotide hydrolysis at 10 μM. […] The IC50 values are calculated from concentration-response curves as described by Tallarida and Murray, Manual of Pharmacologic Calculations with Computer Programs, Procedure 8, Graded Dose-response, pp. 14-19, Springer-Verlag, New York, 1981.

Assay [1] has as its system Spontaneously hypertensive rats (SHR). In words: Antihypertensive activity in spontaneously hypertensive rats, iv. The assay is classed as in vivo, rat. As to the method: After a 2 day recovery from surgery, three baseline blood pressure measurements were made at 5 min intervals in conscious SHR. Compounds to be tested or vehicle were then administered intravenously in a dose-dependent manner (0.3-10 mg base/kg) while arterial pressure was recorded continuously on a polygraph. The mean arterial pressure response was measured 5 minutes after the administration of each dose of the test compound and the next dose given in a cumulative dose fashion. The response to each dose of the test compound was calculated as the difference from the mean of the three baseline measurements.

The conditions of assay [2]: Crenshaw et al., J. Med. Chem. 1976; cited from earlier work.
The mark [3] stands for this setting: Rattus norvegicus, 5 min, cumulative dosing, 5 minutes after dose, read-out: % change in mean arterial pressure.
[4] abbreviates: separate experimental runs, first value.
Where [5] appears, read: separate experimental runs, second value.

As usually defined, the IC50 is the concentration that gives 50% inhibition. For `CCn1ncc2c(NCC3CCCCC3)c3ccccc3nc21` [1(c), 1-ethyl-N-(cyclohexylmethyl)-1H-pyrazolo[3,4-b]quinolin-4-amine], half-maximal inhibition in the assay with cGMP-PDE V (IC50) required 0.083 µM. Further, in assay [1] (setting [3]), the change in vivo at 10 mg/kg was -15%. As for `CCn1ncc2c(NCC3CCC(CO)CC3)c3ccccc3nc21` (centres unmarked) [6(b), 1-ethyl-N-[(4-hydroxymethylcyclohexyl)methyl]-1H-pyrazolo[3,4-b]quinolin-4-amine], in the assay with cGMP-PDE V, the 50% inhibitory concentration (IC50) came to 0.12 µM. Besides, the change in vivo at 10 mg/kg in assay [1] (setting [3]) is -23%.

In the assay on cGMP-PDE V, `CCn1ncc2c(NCC3CCCCC3)c3cc(OC)ccc3nc21` [7(d), 1-ethyl-6-methoxy-N-(cyclohexylmethyl)-1H-pyrazolo[3,4-b]quinolin-4-amine] showed an IC50 of 0.033 µM. Further, the change in vivo at 3 mg/kg in assay [1] (setting [3]) is -16%. For `CCn1ncc2c(NCC3CCCCC3)c3cc([N+](=O)[O-])ccc3nc21` [15(c), 1-ethyl-6-nitro-N-(cyclohexylmethyl) -1H-pyrazolo[3,4-b]quinolin-4-amine] the same measures were 0.0015 µM and -18%. In turn, `CCn1ncc2c(NCC3CCCCC3)c3cc(OCC(O)CO)ccc3nc21` (centres unmarked) [17(b), 1-ethyl-6-(2,3-dihydroxypropoxy)-N-(cyclohexylmethyl)-1H-pyrazolo[3,4-b]quinolin-4-amine] yielded a 50% inhibitory concentration (IC50) with cGMP-PDE V of 0.13 µM. The change in vivo at 10 mg/kg in assay [1] (setting [3]) is -6%. For the molecule `CCn1ncc2c(NCC3CCCCC3)c3ccc(C(=O)O)cc3nc21` [23(c), 1-ethyl-7-carboxy-N-(cyclohexylmethyl)-1H-pyrazolo[3,4-b]quinolin-4-amine], in the assay with cGMP-PDE V, inhibition was half-maximal at 0.038 µM (IC50). In addition, the change in vivo at 3 mg/kg in assay [1] (setting [3]) was -7%.

In turn, `CCn1ncc2c(N[C@@H](C)C3CCCCC3)c3cc(S(C)(=O)=O)ccc3nc21` [37(d), 1-ethyl-6-(methylsulfonyl)-N-[S(+)-1-(cyclohexyl)ethyl]-1H-pyrazolo[3,4-b]quinolin-4-amine] registered an IC50 in the assay with cGMP-PDE V (setting [4]) of 0.0083 µM. This molecule returned an IC50 in the assay with cGMP-PDE V (setting [5]) of 0.0115 µM. Moreover, in assay [1] (setting [3]), the change in vivo at 3 mg/kg is -15% and the change in vivo at 10 mg/kg is -18%. Molecule `CCn1ncc2c(NCC3CCCCC3)c3cc(O)ccc3nc21` [Example 8, 1-ethyl-6-hydroxy-N-(cyclohexylmethyl)-1H-pyrazolo[3,4-b]quinolin-4-amine] yielded a half-maximal inhibitory concentration (IC50) with cGMP-PDE V of 0.036 µM. Also, in assay [1] (0.3-10 mg base/kg), the “% change in mean arterial pressure or ED25, result in words” value is reported as “Inactive”. Take `CCn1ncc2c(NCC3CCCCC3)c3cc(OCC(=O)O)ccc3nc21` [Example 13, 1-ethyl-6-(carboxymethoxy)-N-(cyclohexymethyl)-1H-pyrazolo[3,4-b]quinolin-4-amine]: 0.042 µM corresponded to half-maximal inhibition in the assay on cGMP-PDE V (IC50). Besides, in assay [1] (Rattus norvegicus, 5 min, 1 mg/kg, cumulative dosing, 5 minutes after dose, read-out: % change in mean arterial pressure), the change in vivo at 1 mg/kg was -10%. Molecule `CCn1ncc2c(NCC3CCCCC3)c3cc(OCC4CO4)ccc3nc21` (centres unmarked) [Example 21, 1-ethyl-6-(2,3-epoxypropoxy)-N-(cyclohexylmethyl)-1H-pyrazolo[3,4-b]quinolin-4amine] yielded an IC50 in the assay on cGMP-PDE V of 0.091 µM. For the same molecule, the change in vivo at 10 mg/kg in assay [1] (setting [3]) was -12%.

In the case of `CCn1ncc2c(NCC3CCCCC3)c3cc(OC(C)C(=O)O)ccc3nc21` (centres unmarked) [Example 22, 1-ethyl-6-(1-carboxyethoxy)-N-(cyclohexylmethyl)-1H-pyrazolo[3,4-b]quinolin-4-amine], 0.074 µM corresponded to half-maximal inhibition in the assay on cGMP-PDE V (IC50). Moreover, the change in vivo at 10 mg/kg in assay [1] (setting [3]) is -7%. For `CCn1ncc2c(NCC3CCCCC3)c3cc(C(=O)O)ccc3nc21` [Example 30, 1-ethyl-6-carboxy-N-(cyclohexylmethyl)-1H-pyrazolo[3,4-b]quinolin-4-amine], in the assay with cGMP-PDE V, the IC50 was found to be 0.03 µM. As for `CCn1ncc2c(NCC3CCCCC3)c3cc(-c4ccncc4)ccc3nc21` [Example 31], the concentration for half-maximal inhibition (IC50) with cGMP-PDE V turned out to be 0.032 µM. As for `CCn1ncc2c(NCC3(O)CCCCC3)c3cc(OC)ccc3nc21` [Example 32, 1-ethyl-6-methoxy-N-[(1-hydroxycyclohexyl)methyl]-1H-pyrazolo[3,4-b]quinolin-4-amine], the “Percent Inhibition cGMP-PDE V” value in the assay with cGMP-PDE V (0.1 μM) was 43%; in the assay on cGMP-PDE V (1 μM) it was 79%; with cGMP-PDE V (10 μM), 96%.

`CCn1ncc2c(NCC3CCCCC3)c3cc(OCCN4CCOCC4)ccc3nc21` [Example 33, 1-ethyl-6-[2-(4-morpholinyl)ethoxy]-N-(cyclohexylmethyl)-1H-pyrazolo[3,4-b]quinolin-4-amine] displayed an IC50 in the assay on cGMP-PDE V of 0.092 µM. On to `CCn1ncc2c(N[C@H](C)C3CCCCC3)c3cc([N+](=O)[O-])ccc3nc21` [Example 35, 1-ethyl-6-nitro-N-[R (-)-1(cyclohexyl)ethyl]-1H-pyrazolo[3,4-b]quinolin-4amine], for which the IC50 in the assay with cGMP-PDE V (setting [4]) is 0.0086 µM; in the assay on cGMP-PDE V (setting [5]), 0.0095 µM; with cGMP-PDE V (separate experimental runs, third value), 0.0095 µM.

For the molecule `C[C@H](Nc1c2ccccc2nc2c1cnn2Cc1ccccc1)C1CCCCC1` [Example 38, 1-benzyl-N-[S (+)-1(cyclohexyl)ethyl]-1H-pyrazolo[3,4-b]quinolin-4-amine], the “Percent Inhibition cGMP-PDE V” value in the assay on cGMP-PDE V (0.01 μM) stood at 9%; in the assay with cGMP-PDE V (0.1 μM), 22%; in the assay with cGMP-PDE V (1 μM), 77%. `CCn1ncc2c(N[C@@H](C)C3CCCCC3)c3ccccc3nc21` [Example 39, 1-ethyl-N-[S(+)-1-(cyclohexyl)ethyl]-1H-pyrazolo[3,4-b]quinolin-4-amine]: in the assay on cGMP-PDE V, the half-inhibitory concentration (IC50) is 0.015 µM.

In turn, `CCn1ncc2c(N[C@@H](C)C3CCCCC3)c3cc(-n4ccnc4)ccc3nc21` [Example 43, 1-ethyl-6-(1-imidazolyl)-N-[S(+)-1-(cyclohexyl)ethyl]-1H-pyrazolo[3,4-b]quinolin-4-amine] returned an IC50 in the assay with cGMP-PDE V of 0.027 µM. Still for that read-out and setting: as for `CCn1ncc2c(N[C@@H](C)C3CCCCC3)c3cc(Br)ccc3nc21` [Example 46, 1-ethyl-6-bromo-N-[S(+)-1-(cyclohexyl)ethyl]-1H-pyrazolo[3,4-b]quinolin-4-amine], the figure is 0.00037 µM; as for `CCn1ncc2c(NCC3CCCCC3)c3cc([S+](C)[O-])ccc3nc21` (centres unmarked) [Example 49, 1-ethyl-6-(methylsulfinyl)-N-(cyclohexylmethyl)-1H-pyrazolo[3,4-b]quinolin-4-amine], 0.018 µM; as for `CCn1ncc2c(N[C@@H](C)C3CCCCC3)c3cc(-n4cc(C)cn4)ccc3nc21` [Example 50, 1-ethyl-6-(4-methyl-1-pyrazolyl)-N-[S(+)-1-(cyclohexyl)ethyl]-1H-pyrazolo[3,4-b]quinolin-4-amine], 0.0091 µM. For `CCn1ncc2c(N[C@@H](C)C3CCCCC3)c3cc(-n4cccn4)ccc3nc21` [Example 52, 1-ethyl-6-(1-pyrazolyl)-N-[S(+)-1-(cyclohexyl)ethyl]-1H-pyrazolo[3,4-b]quinolin-4-amine], the values for the IC50 with cGMP-PDE V (setting [4]) and in the assay with cGMP-PDE V (setting [5]) were 0.0002 µM and 0.00027 µM, respectively. The matching figures for `CC[C@H](Nc1c2cc([N+](=O)[O-])ccc2nc2c1cnn2CC)C1CCCCC1` [Example 54, 1-ethyl-6-nitro-N-[S(+)-1-(cyclohexyl)propyl]-1H-pyrazolo[3,4-b]quinolin-4-amine]: 0.0059 µM and 0.0088 µM.

As for `C=Cc1ccc2nc3c(cnn3CC)c(N[C@@H](C)C3CCCCC3)c2c1` [Example 55, 1-ethyl-6-(ethenyl)-N-[S(+)-1(cyclohexyl)ethyl]-1H-pyrazolo[3,4-b]quinolin-4-amine], the “Percent Inhibition cGMP-PDE V” value is listed as 58% in the assay with cGMP-PDE V (0.001 μM), 91% in the assay on cGMP-PDE V (0.01 μM) and 96% in the assay with cGMP-PDE V (0.1 μM).

With `Cc1nn(C)c2nc3ccccc3c(NCCCNC34CC5CC(CC(C5)C3)C4)c12` [N-(1,3-dimethyl-1H-pyrazolo[3,4-b]quinolin-4-yl)-N'-tricyclo[3.3.1.1^3.7]dec-1-yl-1,3-propane diamine], in assay [2], the “activity in the interferon assay” value is “inactive”. With `Cc1nn(C)c2nc3ccccc3c(NCc3cccnc3)c12` [N-(3-pyridinylmethyl)], in assay [2], the “activity in the interferon assay” value is “inactive”. Turning to `Cc1nn(C)c2nc3ccccc3c(NCc3ccccc3N(C)C)c12` [N-[[2-(dimethylamino)phenyl]methyl]-1,3-dimethyl-1H-pyrazolo[3,4-b]quinolin-4-amines], the “activity in the interferon assay” value in assay [2] is “inactive”. Turning to `Cc1nn(C)c2nc3ccccc3c(NC3CC3)c12` [N-cyclopropyl], the “activity in the interferon assay” value in assay [2] was “inactive”. As to `Cc1nn(C)c2nc3ccccc3c(NC34CC5CC(CC(C5)C3)C4)c12` [N-tricyclo[3.3.1.13,7]dec-1-yl], the “activity in the interferon assay” value in assay [2] is “inactive”.
